Source: patent US4673684A, “Amide derivatives and 5-lipoxygenase inhibitors containing the same as an active ingredient” (Terumo Corporation, priority 1984, dated 1987)

These compounds were tested against T1, 5-lipoxygenase (Mus musculus, UniProt P48999) (assay: 5-Lipoxygenase-inhibiting Activity (decrease in 5-HETE and LTB4 formed from radiolabelled arachidonic acid, enzyme solution from mouse mastcytoma cells P-815)). Settings: 5-HETE and LTB4 formation; mouse mastcytoma P-815 enzyme solution; 37° C., 5 min; pH 7.4; with indomethacin; read-out: 50% Inhibitory concentration IC50.
T1 construct: The supernatant is used as a 5-lipogenase enzyme solution; endogenous in cells
T1 sequence (P48999 1-674): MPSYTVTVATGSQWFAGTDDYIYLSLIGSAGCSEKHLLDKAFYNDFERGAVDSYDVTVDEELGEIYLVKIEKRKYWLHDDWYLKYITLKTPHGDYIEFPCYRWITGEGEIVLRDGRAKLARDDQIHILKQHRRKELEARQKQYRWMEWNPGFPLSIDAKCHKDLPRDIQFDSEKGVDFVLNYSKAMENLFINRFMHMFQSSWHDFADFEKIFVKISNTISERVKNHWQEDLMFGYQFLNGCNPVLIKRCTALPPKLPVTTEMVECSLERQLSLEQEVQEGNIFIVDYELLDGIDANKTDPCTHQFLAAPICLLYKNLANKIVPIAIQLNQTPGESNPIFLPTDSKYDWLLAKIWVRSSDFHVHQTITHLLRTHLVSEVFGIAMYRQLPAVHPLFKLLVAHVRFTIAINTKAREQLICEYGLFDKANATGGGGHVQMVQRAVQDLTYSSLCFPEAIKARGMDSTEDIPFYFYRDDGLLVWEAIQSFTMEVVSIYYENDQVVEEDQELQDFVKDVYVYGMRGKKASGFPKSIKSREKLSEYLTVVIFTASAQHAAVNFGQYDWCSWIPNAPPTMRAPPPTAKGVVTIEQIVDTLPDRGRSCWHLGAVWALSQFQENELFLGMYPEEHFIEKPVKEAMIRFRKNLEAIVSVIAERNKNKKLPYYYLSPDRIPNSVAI
Type: biochemical
Protocol: Mouse mastcytoma cells P-815 are diluted in a culture solution, containing 90% Eagle Basic Medium (manufactured by Gibco Laboratories) to 5×10^4 cells/ml. The diluted solution is cultivated with shaking in air at 37° C. for 48 hours. Then, the culture solution is cooled with ice and centrifuged to collect the cells. The cells are suspended in a phosphate buffer solution at pH 7.4 at a concentration of 2×10^7 cells/ml. The suspension is treated in a ultrasonic cell disintegrater and then centrifuged at 10,000 r.p.m. for 10 min. The supernatant is used as a 5-lipogenase enzyme solution. In test tubes are placed 20 μl of radiolabelled arachidonic acid ([…]), indomethacin (2×10^-8 mol) and an amide derivative to be tested, respectively. To each of the test tubes are added 0.45 ml of a phosphate buffer solution, 0.45 ml of the above-prepared suspension, 0.45 ml of the above-prepared enzyme solution and 0.1 ml of 8 mM CaCl2 (calcium chloride). The mixture is reacted at 37° C. for 5 min. After cooled with ice, 60 μl of 1N-HCl (hydrochloric acid is added to the reaction mixture, which is then extracted with 8 ml of ethyl acetate. The extract is concentrated, and the concentrate is developed by spotting on a silica gel thin layer plate (Merck 60F 254). Measurement of the inhibitory activity is made by collecting fractions corresponding to lipoxygenase products 5-HETE (5(s)-hydroxy-6,8,11,14-eicosatetraenic acid) and LTB4 (leucotriene B4) and determining the radioactivity by a liquid scintillation counter. The lipoxygenase inhibiting activity is determined by decrease in the amount of the above-mentioned 5-lipoxygenaseproducts. […] 50% inhibitory concentration or 30% inhibitory concentration as indicated in the table means the concentration of an amide derivative required for reducing the amount of the above-mentioned 5-lipoxygenase products (5-HETE and LTB4) to 50% or 30% of the amount when the amount of 5-HETE and LTB4 produced in the absenced of the amide derivative is 100%.

| IC50 | Compound |
| --- | --- |
| 1000 nM | COc1cc(/C=C/C=C/C(=O)NCc2c(CO)cnc(C)c2O)cc(OC)c1O [Example 56, 4-[5-(3,5-dimethoxy-4-hydroxyphenyl)-2,4-pentadineoyl]aminomethyl-3-hydroxy-5-hydroxymethyl-2-methylpyridine] |
| 400 nM | COc1cc(/C=C/C=C/C(=O)Nc2ccccc2C(=O)O)cc(OC)c1O [Example 57, N-{5-(3,5-dimethoxy-4-hydroxyphenyl)-2,4-pentadienoyl}anthranilic acid] |
| 3000 nM | COc1cc(/C=C/C=C/C(=O)NCc2c(COC(=O)c3ccc(C)cc3)cnc(C)c2O)cc(OC)c1OC(=O)c1ccc(C)cc1 [Example 58, 4-{5-(3,5-dimethoxy-4-toluoxyphenyl)-2,4-pentadienoyl}aminomethyl-3-hydroxy-2methyl-5-toluoxymethylpyridine] |
| 2000 nM | COc1cc(/C=C/C=C/C(=O)NCCN2CCN(C(c3ccccc3)c3ccccc3)CC2)cc(OC)c1OC [Example 59, N-[2-[5-(3,4,5-trimethoxyphenyl)-2,4-pentadienoyl]aminoethyl]-N'-benzhydrylpiperazine] |
| 100000 nM | COc1cc(/C=C/C=C/C(=O)NCc2c(CO)cnc(C)c2O)cc(OC)c1OC [Example 60, 4-[5-(3,4,5-trimethoxyphenyl)-2,4-pentadienoyl]aminomethyl-3-hydroxy-5-hydroxymethyl-2-methylpyridine] |
| 3000 nM | O=C(/C=C/C=C/c1ccc2c(c1)OCO2)NCCN1CCN(C(c2ccccc2)c2ccccc2)CC1 [Example 61, N-[2-[5-(3,4-methylenedioxyphenyl)-2,4-pentadienoyl]aminoethyl]-N'-benzhydrylpiperazine] |
| 2000 nM | O=C(/C=C/C=C/c1ccc2c(c1)OCO2)NCCCN1CCN(C(c2ccccc2)c2ccccc2)CC1 [Example 62, N-[3-[5-(3,4,-methylenedioxyphenyl)-2,4-pentadienoyl]aminopropyl]-N'-benzhydrylpipeerazine] |
| 50 nM | O=C(/C=C/c1ccc(O)c(O)c1)NCCCCN1CCN(C(c2ccccc2)c2ccc(Cl)cc2)CC1 (stereo not drawn) [Example 63] |
| 30 nM | O=C(/C=C/c1ccc(O)c(O)c1)NCCCCN1CCN(C(c2ccccc2)c2ccccc2)CC1 [Example 64, N-[4-[3-,4-(3,4-dihydroxyphenyl)-2-propenoyl]aminobutyl]N'-benzhydrylpiperazine] |
| 2000 nM | Cn1c(=O)c2c(ncn2CCNC(=O)/C=C/c2ccc(O)c(O)c2)n(C)c1=O [Example 65, 7-[2-[3-(3,4-dihydroxy)phenyl-2-propenoyl]aminoethyl]theophilline] |
| 30 nM | O=C(/C=C/c1ccc(O)c(O)c1)NCCOC(c1ccccc1)c1ccccc1 [Example 67, 2-[3-(3,4-dihydroxy)phenyl-2-propenoyl]aminoethyl benzhydryl ether] |
| 40 nM | COc1cc(/C=C/C(=O)NCCCCN2CCN(C(c3ccccc3)c3ccccc3)CC2)ccc1O [Example 68] |
| 6000 nM | COc1cc(/C=C/C(=O)NCCn2cnc3c2c(=O)n(C)c(=O)n3C)ccc1O [Example 69, 7-[2-[3-(3-methoxy-4-hydroxy)phenyl-2-propenoyl]aminoethyl]theophylline] |

More lines, now with the values behind:

| Compound | IC50 |
| --- | --- |
| COc1cc(/C=C/C=C/C(=O)NCCCN2CCN(C(c3ccccc3)c3ccccc3)CC2)ccc1O [Example 38, N-[3-[5-(3-methoxy-4-hydroxyphenyl)-2,4-pentadienoyl]aminopropyl]-N'-benzhydrylpiperazine] | 200 nM |
| COc1cc(/C=C/C=C/C(=O)NCCCN2CCN(C(c3ccccc3)c3ccc(Cl)cc3)CC2)ccc1O (stereo not drawn) [Example 39, N-(p-chlorobenzhydryl)-N'-[3-{5-(3-methoxy-4-hydroxyphenyl)-2,4-pentadienoyl)aminopropyl]piperazine] | 100 nM |
| COc1cc(/C=C/C=C/C(=O)NCCN2CCN(C)CC2)ccc1O [Example 40] | 10000 nM |
| COc1cc(/C=C/C=C/C(=O)NCc2c(COC(=O)c3ccc(C)cc3)cnc(C)c2O)ccc1O [Example 41, 4-[5-(3-methoxy-4-hydroxyphenyl)-2,4-pentadienoyl]-aminomethyl-3-hydroxy-2-methyl-5-toluoxymethylpyridine] | 200 nM |
| COc1cc(/C=C/C=C/C(=O)NCCN2CCN(C(=O)c3ccccc3N)CC2)ccc1O [Example 42, N-(o-aminobenzoyl)-N'-[{5-(3-methoxy-4-hydroxyphenyl)-2,4-pentadienoyl}aminoethyl]piperazine] | 2000 nM |
| COc1cc(/C=C/C=C/C(=O)NCCCCNC(=O)c2ccccc2N)ccc1O [Example 43, N-5-(3-methoxy-4-hydroxy)phenyl-2,4-pentadienoyl-N'-(2-amino)-benzoyl putrescine] | 300 nM |
| O=C(/C=C/C=C/c1ccc(O)c(O)c1)NCCCN1CCN(C(c2ccccc2)c2ccccc2)CC1 [Example 44, N-benzhydryl-N'-[[5-{3,4-dihydroxyphenyl)-2,4-pentadienoyl}aminopropyl]piperazine] | 80 nM |
| O=C(/C=C/C=C/c1ccc(O)c(O)c1)NCCCN1CCN(C(c2ccccc2)c2ccc(Cl)cc2)CC1 (stereo not drawn) [Example 45, N-(p-chlorobenzhydryl)-N'-[{5-(3,4-dihydroxyphenyl)-2,4-pentadienoyl}-aminopropyl]piperazine] | 60 nM |
| Cc1ccc(C(=O)OCc2cnc(C)c(O)c2CNC(=O)/C=C/C=C/c2ccc(O)c(O)c2)cc1 [Example 46] | 80 nM |
| COc1ccc(/C=C/C=C/C(=O)NCCCN2CCN(C(c3ccccc3)c3ccccc3)CC2)cc1OC [Example 47, N-[3-[5-(3,4-dimethoxyphenyl)-2,4-pentadienoyl]-aminopropyl]-N'-benzhydrylpiperazine] | 4000 nM |
| COc1ccc(/C=C/C=C/C(=O)NCCN2CCN(C(=O)c3ccccc3N)CC2)cc1OC [Example 48, N-(o-aminobenzoyl)-N'-[{5-(3,4-dimethoxyphenyl)-2,4-pentadienoyl}aminoethyl]piperazine] | 6000 nM |
| COc1cc(/C=C/C(=O)NCCN2CCN(C(c3ccccc3)c3ccc(Cl)cc3)CC2)cc(OC)c1O (stereo not drawn) [Example 49] | 40 nM |
| COc1cc(/C=C/C(=O)NCc2c(CO)cnc(C)c2O)cc(OC)c1O [Example 50, 4-[3-(3,5-dimethoxy-4-hydroxyphenyl)-2-propenoyl]aminomethyl-3-hydroxy-5-hydroxymethyl-2-methylpyridine] | 6000 nM |
| COc1cc(/C=C/C(=O)Nc2ccccc2C(=O)O)cc(OC)c1O [Example 51, N-[3-(3,5-dimethox-4-hydroxyphenyl)propenoyl]anthranilic acid] | 1000 nM |
| COc1cc(/C=C/C(=O)NCCN2CCN(C(c3ccccc3)c3ccccc3)CC2)cc(OC)c1OC [Example 52, N-benzhydryl-N'-[3-(3',4',5'-trimethoxy)phenyl-2-propenoyl]aminoethylpiperazine] | 10000 nM |
| COc1cc(/C=C/C=C/C(=O)NCCN2CCN(C(c3ccccc3)c3ccccc3)CC2)cc(OC)c1O [Example 53, N-[2-[5-(3,5-dimethoxy-4-hydroxyphenyl)-2,4-pentadienoyl]aminoethyl]-N'-benzhydrylpiperazine] | 20 nM |
| COc1cc(/C=C/C=C/C(=O)NCCN2CCN(C(c3ccccc3)c3ccc(Cl)cc3)CC2)cc(OC)c1O (stereo not drawn) [Example 54, N-(p-chlorobenzhydryl)-N'-[2-{5-(3,5-dimethoxy-4-hydroxyphenyl)-2,4-pentadienoyl}aminoethyl]piperazine] | 20 nM |
| COc1cc(/C=C/C=C/C(=O)NCCCN2CCN(C(c3ccccc3)c3ccccc3)CC2)cc(OC)c1O [Example 55] | 30 nM |
| O=C(/C=C/c1ccc(O)c(O)c1)N1CCN(CCOC(c2ccccc2)c2ccccc2)CC1 [Example 66, N-[3-(3,4-dihydroxyphenyl)-2-propenoyl]-N'-(2-benzhydroxyethyl)] | 30 nM |
| COc1cc(/C=C/C(=O)N2CCN(CCOC(c3ccccc3)c3ccccc3)CC2)ccc1O [Example 70] | 600 nM |
